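1) Cells in 96-well plates. 2) Compound, 48 h, 5 concentrations. 3) Linear interpolation between surrounding doses. 4) Unreached endpoint = highest concentration. GI50 marks 50% less growth.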 Calls of active or inactive are those of the source. Rule as the data show it: active = GI50 up to about 1.1 µM and inactive = higher.
Tests used:
Assay in all cases: NCI-60 cell line screen, 48 h
OVCAR-8 = tested on: OVCAR-8
HCT-116 = tested on: HCT-116
NCI-H226 = tested on: NCI-H226
SW-620 = tested on: SW-620
HOP-18 = tested on: HOP-18
HCT-15 = tested on: HCT-15
M19-MEL = tested on: M19-MEL
HOP-62 = tested on: HOP-62
SK-MEL-28 = tested on: SK-MEL-28
UO-31 = tested on: UO-31
MCF7 = tested on: MCF7
SF-539 = tested on: SF-539
OVCAR-3 = tested on: OVCAR-3
LOX IMVI = tested on: LOX IMVI
NCI-H460 = tested on: NCI-H460
XF498 = tested on: XF498
UACC-257 = tested on: UACC-257
SNB-78 = tested on: SNB-78
RPMI-8226 = tested on: RPMI-8226
A549 = tested on: A549
EKVX = tested on: EKVX
DMS-114 = tested on: DMS-114
A498 = tested on: A498
MOLT-4 = tested on: MOLT-4
DLD-1 = tested on: DLD-1
K562 = tested on: K562
SK-MEL-2 = tested on: SK-MEL-2
HL-60 = tested on: HL-60
HT-29 = tested on: HT-29
SF-268 = tested on: SF-268
NCI-H522 = tested on: NCI-H522
SN12C = tested on: SN12C
Malme-3M = tested on: Malme-3M
OVCAR-4 = tested on: OVCAR-4
OVCAR-5 = tested on: OVCAR-5
SK-MEL-5 = tested on: SK-MEL-5
SNB-19 = tested on: SNB-19
SF-295 = tested on: SF-295
SNB-75 = tested on: SNB-75
UACC-62 = tested on: UACC-62
RXF 393 = tested on: RXF 393
COLO 205 = tested on: COLO 205
HCC 2998 = tested on: HCC 2998
DMS-273 = tested on: DMS-273
U-251 = tested on: U-251
KM-20L2 = tested on: KM-20L2
NCI/ADR-RES = tested on: NCI/ADR-RES
CCRF-CEM = tested on: CCRF-CEM
SK-OV-3 = tested on: SK-OV-3
IGROV-1 = tested on: IGROV-1
KM12 = tested on: KM12
NCI-H23 = tested on: NCI-H23
CAKI-1 = tested on: CAKI-1
ACHN = tested on: ACHN
M14 = tested on: M14
LXFL 529 = tested on: LXFL 529
HOP-92 = tested on: HOP-92
TK-10 = tested on: TK-10
786-0 = tested on: 786-0
SR = tested on: SR

SMILES: O=C(NC/C=C/CO)c1ccccc1
- GI50 (OVCAR-8): > 100 µM (inactive)
- GI50 (HCT-116): > 100 µM (inactive)
- GI50 (NCI-H226): > 100 µM (inactive)
- GI50 (SW-620): > 100 µM (inactive)
- GI50 (HOP-18): > 100 µM (inactive)
- GI50 (HCT-15): > 100 µM
- GI50 (M19-MEL): > 100 µM (inactive)
- GI50 (HOP-62): > 100 µM (inactive)
- GI50 (SK-MEL-28): > 100 µM (inactive)
- GI50 (UO-31): > 100 µM (inactive)
- GI50 (MCF7): > 100 µM (inactive)
- GI50 (SF-539): > 100 µM (inactive)
- GI50 (OVCAR-3): > 100 µM (inactive)
- GI50 (LOX IMVI): > 100 µM (inactive)
- GI50 (NCI-H460): > 100 µM (inactive)
- GI50 (XF498): > 100 µM (inactive)
- GI50 (UACC-257): > 100 µM (inactive)
- GI50 (SNB-78): > 100 µM (inactive)
- GI50 (RPMI-8226): > 100 µM (inactive)
- GI50 (A549): > 100 µM (inactive)
- GI50 (EKVX): > 100 µM (inactive)
- GI50 (DMS-114): > 100 µM (inactive)
- GI50 (A498): > 100 µM (inactive)
- GI50 (MOLT-4): > 100 µM (inactive)
- GI50 (DLD-1): > 100 µM (inactive)
- GI50 (K562): > 100 µM (inactive)
- GI50 (SK-MEL-2): > 100 µM (inactive)
- GI50 (HL-60): > 100 µM (inactive)
- GI50 (HT-29): > 100 µM (inactive)
- GI50 (SF-268): > 100 µM (inactive)
- GI50 (NCI-H522): > 100 µM (inactive)
- GI50 (SN12C): > 100 µM (inactive)
- GI50 (Malme-3M): > 100 µM (inactive)
- GI50 (OVCAR-4): > 100 µM (inactive)
- GI50 (OVCAR-5): > 100 µM (inactive)
- GI50 (SK-MEL-5): > 100 µM (inactive)
- GI50 (SNB-19): > 100 µM (inactive)
- GI50 (SF-295): > 100 µM (inactive)
- GI50 (SNB-75): 65.8 µM (inactive)
- GI50 (UACC-62): > 100 µM (inactive)
- GI50 (RXF 393): > 100 µM (inactive)
- GI50 (COLO 205): > 100 µM (inactive)
- GI50 (HCC 2998): > 100 µM (inactive)
- GI50 (DMS-273): > 100 µM (inactive)
- GI50 (U-251): > 100 µM (inactive)
- GI50 (KM-20L2): > 100 µM (inactive)
- GI50 (NCI/ADR-RES): > 100 µM (inactive)
- GI50 (CCRF-CEM): > 100 µM (inactive)
- GI50 (SK-OV-3): > 100 µM (inactive)
- GI50 (IGROV-1): > 100 µM (inactive)
- GI50 (KM12): > 100 µM (inactive)
- GI50 (NCI-H23): > 100 µM (inactive)

SMILES: CCOC(=O)c1cnc2c(ccc3ncccc32)c1NCCCN(CC)CC
- GI50 (NCI-H226): > 100 µM (inactive)
- GI50 (SW-620): 41.9 µM (inactive)
- GI50 (HOP-18): > 100 µM (inactive)
- GI50 (HCT-15): 80.5 µM
- GI50 (M19-MEL): > 100 µM (inactive)
- GI50 (HOP-62): > 100 µM (inactive)
- GI50 (SK-MEL-28): 50 µM (inactive)
- GI50 (UO-31): 76.4 µM (inactive)
- GI50 (SF-539): > 10 µM (inactive)
- GI50 (OVCAR-3): > 100 µM (inactive)
- GI50 (CAKI-1): > 100 µM (inactive)
- GI50 (LOX IMVI): 17.5 µM (inactive)
- GI50 (ACHN): > 100 µM (inactive)
- GI50 (NCI-H460): 35.2 µM (inactive)
- GI50 (XF498): > 100 µM (inactive)
- GI50 (UACC-257): > 100 µM (inactive)
- GI50 (SNB-78): > 100 µM (inactive)
- GI50 (M14): 19.1 µM (inactive)
- GI50 (RPMI-8226): 38.2 µM (inactive)
- GI50 (A549): > 100 µM (inactive)
- GI50 (EKVX): > 100 µM (inactive)
- GI50 (A498): > 100 µM (inactive)
- GI50 (MOLT-4): 23 µM (inactive)
- GI50 (DLD-1): > 100 µM (inactive)
- GI50 (K562): 27.2 µM (inactive)
- GI50 (SK-MEL-2): > 100 µM (inactive)
- GI50 (HL-60): 14.6 µM (inactive)
- GI50 (HT-29): 39.1 µM (inactive)
- GI50 (SF-268): 90.6 µM (inactive)
- GI50 (NCI-H522): > 100 µM (inactive)
- GI50 (Malme-3M): > 100 µM (inactive)
- GI50 (OVCAR-4): 30 µM (inactive)
- GI50 (LXFL 529): > 100 µM (inactive)
- GI50 (OVCAR-5): > 100 µM (inactive)
- GI50 (SK-MEL-5): > 100 µM (inactive)
- GI50 (SNB-19): 50.1 µM (inactive)
- GI50 (SF-295): 86.7 µM (inactive)
- GI50 (UACC-62): > 100 µM (inactive)
- GI50 (COLO 205): 70.3 µM (inactive)
- GI50 (HOP-92): 65.8 µM (inactive)
- GI50 (HCC 2998): > 100 µM (inactive)
- GI50 (DMS-273): 54.1 µM (inactive)
- GI50 (U-251): 72.4 µM (inactive)
- GI50 (KM-20L2): 34.2 µM (inactive)
- GI50 (CCRF-CEM): 38.4 µM (inactive)
- GI50 (TK-10): > 100 µM (inactive)
- GI50 (SK-OV-3): > 100 µM (inactive)
- GI50 (IGROV-1): > 100 µM (inactive)
- GI50 (KM12): 38.3 µM (inactive)
- GI50 (NCI-H23): 87.9 µM (inactive)
- GI50 (786-0): 37.9 µM (inactive)

SMILES: C/C(=N\NC(=O)c1ccccc1O)c1cccc(/C(C)=N/NC(=O)c2ccccc2O)n1.[Cl-].[Cl-].[Zn+2]
- GI50 (OVCAR-8): 2.18 µM (inactive)
- GI50 (SW-620): 5.85 µM (inactive)
- GI50 (HCT-15): 7.35 µM
- GI50 (LOX IMVI): 1.37 µM (inactive)
- GI50 (ACHN): 2.17 µM (inactive)
- GI50 (XF498): 21.2 µM (inactive)
- GI50 (M14): 7.96 µM (inactive)
- GI50 (A549): 10.8 µM (inactive)
- GI50 (EKVX): 19.6 µM (inactive)
- GI50 (DMS-114): 2.97 µM (inactive)
- GI50 (MOLT-4): 1.59 µM (inactive)
- GI50 (SK-MEL-2): 15.2 µM (inactive)
- GI50 (SF-268): 2.11 µM (inactive)
- GI50 (SR): 1.44 µM (inactive)
- GI50 (Malme-3M): 10.8 µM (inactive)
- GI50 (LXFL 529): 1.34 µM (inactive)
- GI50 (SK-MEL-5): 10.4 µM (inactive)
- GI50 (SF-295): 9.98 µM (inactive)
- GI50 (SNB-75): 17.9 µM (inactive)
- GI50 (UACC-62): 2.11 µM (inactive)
- GI50 (RXF 393): 8.05 µM (inactive)
- GI50 (HOP-92): 10.6 µM (inactive)
- GI50 (HCC 2998): 2.01 µM (inactive)
- GI50 (TK-10): 10.2 µM (inactive)
- GI50 (SK-OV-3): 6.15 µM (inactive)
- GI50 (KM12): 6.25 µM (inactive)

— ChEMBL document CHEMBL1201862, “PubChem BioAssay data set” (2004)
